Literature values in patent publication US20150082465A1, “System and Method for Whole-Animal High-Throughput Compound Screening” (System959, LLC, priority 2013, published 2015).

Tested on: C. elegans
Details: by antagonizing egl-19, an L-type calcium channel

CCOC(=O)C1=C(C)NC(C)=C(C(=O)OCC)C1c1c(F)c(F)c(F)c(F)c1F [Nemadipine]
growth of C. elegans: inhibit the growth
